What was measured:
[1] = human, serum
[2] = human
[3] = human; remark: listed apart in the source
[4] = Highest frequency of acute liver toxicity observed during clinical trials, expressed as a percentage. [column '% AIGUE' in source]; conditions: human
[5] = human; remark: listed apart in the source
[6] = human; remark: listed apart in the source
[7] = human; remark: listed apart in the source
[8] = human; remark: listed apart in the source
[9] = human; remark: listed apart in the source
[10] = Highest frequency of moderate liver toxicity observed during clinical trials, expressed as a percentage. [column '% BIOL' in source]; conditions: human
[11] = human; remark: listed apart in the source
[12] = human, serum, 4383 h
[13] = Times to onset, minimal and maximal, observed in the indexed observations. [column 'DELAI' in source]; conditions: human
[14] = human; remark: listed apart in the source
[15] = human; remark: listed apart in the source
[16] = human, serum; remark: listed apart in the source
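Throughout, for Hepatotoxicity (association with vascular disease): count of indexed literature references reporting vascular liver injury in humans, e.g. peliosis hepatitis, hepatic veno-occlusive disease or Budd-Chiari syndrome.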
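Throughout, for Hepatotoxicity (benign tumour): value is a count of indexed literature references citing a benign tumour confirmed by histopathology.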
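Throughout, for Hepatotoxicity (choleostasis): human cholestatic liver injury, shown by histopathology or by peak ALT or AST elevation over alkaline phosphatase ratio below 2, value counts indexed literature reports.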
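Throughout, for Hepatotoxicity (chronic liver disease): chronic liver injury confirmed by histopathology or persistently raised serum aminotransferase activity beyond 6 months, value given as the count of indexed literature references.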
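Throughout, for Hepatotoxicity (cirrhosis): value is a count of indexed literature references reporting cirrhosis confirmed by histopathology.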
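Throughout, for Hepatotoxicity (cytolytic): human cytolytic liver injury, shown by histopathology or by a ratio above 5 of peak ALT or AST elevation to alkaline phosphatase elevation, value counts indexed references.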
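Throughout, for Hepatotoxicity (granulomatous hepatitis): value is a count of indexed literature references reporting granulomatous liver disease confirmed by histopathology.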
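Throughout, for Hepatotoxicity (malignant tumour): malignant tumour confirmed by histopathology, value gives the count of indexed literature references reporting it.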
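Throughout, for Hepatotoxicity (severe hepatitis): human clinical data: severe hepatitis, meaning potentially life-threatening liver failure or clinically observed cases, the value counts how many indexed literature references report it.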
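Throughout, for Hepatotoxicity (steatosis): steatosis confirmed by histopathology, value is the count of indexed references.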

[N-]=[N+]=O [NITROUS OXIDE]
Hepatotoxicity (acute) [1]: 1
Hepatotoxicity (benign tumour) [2]: 0
Hepatotoxicity (malignant tumour) [3]: 0
Hepatotoxicity (acute) [4]: 0%
Hepatotoxicity (granulomatous hepatitis) [5]: 0
Hepatotoxicity (steatosis) [6]: 0
Hepatotoxicity (severe hepatitis) [7]: 0
Hepatotoxicity (cytolytic) [8]: 1
Hepatotoxicity (association with vascular disease) [9]: 0
Hepatotoxicity (moderate) [10]: 0%
Hepatotoxicity (animal toxicity known) [11]: yes
Hepatotoxicity (chronic liver disease) [12]: 0
Hepatotoxicity (time to onset) [13]: 9 days
Hepatotoxicity (cirrhosis) [14]: 0
Hepatotoxicity (choleostasis) [15]: 0
Hepatotoxicity (moderate) [16]: 1

N=C(N)c1ccc(/C=C/c2ccc(C(=N)N)cc2)cc1 [STILBAMIDINE]
Hepatotoxicity (acute) [1]: 1
Hepatotoxicity (benign tumour) [2]: 0
Hepatotoxicity (malignant tumour) [3]: 0
Hepatotoxicity (acute) [4]: 0%
Hepatotoxicity (granulomatous hepatitis) [5]: 0
Hepatotoxicity (steatosis) [6]: 0
Hepatotoxicity (severe hepatitis) [7]: 0
Hepatotoxicity (cytolytic) [8]: 1
Hepatotoxicity (association with vascular disease) [9]: 0
Hepatotoxicity (moderate) [10]: 0%
Hepatotoxicity (animal toxicity known) [11]: yes
Hepatotoxicity (chronic liver disease) [12]: 0
Hepatotoxicity (time to onset) [13]: 1 month - 3 months
Hepatotoxicity (cirrhosis) [14]: 0
Hepatotoxicity (choleostasis) [15]: 0
Hepatotoxicity (moderate) [16]: 0

COc1cc(NS(C)(=O)=O)ccc1Nc1c2ccccc2nc2ccccc12 [AMSACRINE]
Hepatotoxicity (acute) [1]: 2
Hepatotoxicity (benign tumour) [2]: 0
Hepatotoxicity (malignant tumour) [3]: 0
Hepatotoxicity (acute) [4]: 0%
Hepatotoxicity (granulomatous hepatitis) [5]: 0
Hepatotoxicity (steatosis) [6]: 1
Hepatotoxicity (severe hepatitis) [7]: 4
Hepatotoxicity (cytolytic) [8]: 2
Hepatotoxicity (association with vascular disease) [9]: 0
Hepatotoxicity (moderate) [10]: 41%
Hepatotoxicity (animal toxicity known) [11]: yes
Hepatotoxicity (chronic liver disease) [12]: 0
Hepatotoxicity (time to onset) [13]: 5 days - 1 month
Hepatotoxicity (cirrhosis) [14]: 0
Hepatotoxicity (choleostasis) [15]: 0
Hepatotoxicity (moderate) [16]: 10

CC(C)[C@](O)(C(=O)OCC1=CC[N+]2([O-])CC[C@@H](O)[C@@H]12)[C@H](C)O (stereo not given in full) [INDICINE N-OXIDE]
Hepatotoxicity (acute) [1]: 6
Hepatotoxicity (benign tumour) [2]: 0
Hepatotoxicity (malignant tumour) [3]: 0
Hepatotoxicity (acute) [4]: 22.7%
Hepatotoxicity (granulomatous hepatitis) [5]: 0
Hepatotoxicity (steatosis) [6]: 0
Hepatotoxicity (severe hepatitis) [7]: 4
Hepatotoxicity (cytolytic) [8]: 4
Hepatotoxicity (association with vascular disease) [9]: 1
Hepatotoxicity (moderate) [10]: 62.5%
Hepatotoxicity (animal toxicity known) [11]: yes
Hepatotoxicity (chronic liver disease) [12]: 0
Hepatotoxicity (time to onset) [13]: 1 cure - 2 cures
Hepatotoxicity (cirrhosis) [14]: 0
Hepatotoxicity (choleostasis) [15]: 0
Hepatotoxicity (moderate) [16]: 8

COc1ccc(NS(=O)(=O)c2ccc(N)cc2)nn1 [SULFAMETHOXYPYRIDAZINE]
Hepatotoxicity (acute) [1]: 4
Hepatotoxicity (benign tumour) [2]: 0
Hepatotoxicity (malignant tumour) [3]: 0
Hepatotoxicity (acute) [4]: 0%
Hepatotoxicity (granulomatous hepatitis) [5]: 0
Hepatotoxicity (steatosis) [6]: 0
Hepatotoxicity (severe hepatitis) [7]: 0
Hepatotoxicity (cytolytic) [8]: 4
Hepatotoxicity (association with vascular disease) [9]: 0
Hepatotoxicity (moderate) [10]: 0%
Hepatotoxicity (animal toxicity known) [11]: yes
Hepatotoxicity (chronic liver disease) [12]: 0
Hepatotoxicity (time to onset) [13]: 1 month - 2 months
Hepatotoxicity (cirrhosis) [14]: 0
Hepatotoxicity (choleostasis) [15]: 2
Hepatotoxicity (moderate) [16]: 0

NNCCc1ccccc1 [PHENELZINE]
Hepatotoxicity (acute) [1]: 6
Hepatotoxicity (benign tumour) [2]: 0
Hepatotoxicity (malignant tumour) [3]: 1
Hepatotoxicity (acute) ([4]; Liver): 0%
Hepatotoxicity (granulomatous hepatitis) ([5]; Liver): 0
Hepatotoxicity (steatosis) [6]: 0
Hepatotoxicity (severe hepatitis) ([7]; Liver): 7
Hepatotoxicity (cytolytic) ([8]; Liver): 6
Hepatotoxicity (association with vascular disease) [9]: 0
Hepatotoxicity (moderate) ([10]; Liver): 0%
Hepatotoxicity (animal toxicity known) [11]: yes
Hepatotoxicity (chronic liver disease) [12]: 0
Hepatotoxicity (time to onset) [13]: 3 weeks - 5 months
Hepatotoxicity (cirrhosis) [14]: 1
Hepatotoxicity (choleostasis) ([15]; Liver): 0
Hepatotoxicity (moderate) [16]: 1

O=c1[nH]c(=O)n([C@@H]2O[C@H](CO)[C@@H](O)[C@@H]2F)cc1I [FIALURIDINE]
Hepatotoxicity (acute) [1]: 1
Hepatotoxicity (benign tumour) [2]: 0
Hepatotoxicity (malignant tumour) [3]: 0
Hepatotoxicity (acute) [4]: 33.3%
Hepatotoxicity (granulomatous hepatitis) [5]: 0
Hepatotoxicity (steatosis) [6]: 1
Hepatotoxicity (severe hepatitis) [7]: 3
Hepatotoxicity (cytolytic) [8]: 0
Hepatotoxicity (association with vascular disease) [9]: 0
Hepatotoxicity (moderate) [10]: 0%
Hepatotoxicity (animal toxicity known) [11]: yes
Hepatotoxicity (chronic liver disease) [12]: 0
Hepatotoxicity (time to onset) [13]: 9.5 weeks - 4 months
Hepatotoxicity (cirrhosis) [14]: 0
Hepatotoxicity (choleostasis) [15]: 0
Hepatotoxicity (moderate) [16]: 0

Cl[C@H]1[C@H](Cl)[C@@H](Cl)[C@@H](Cl)[C@H](Cl)[C@H]1Cl [LINDANE]
Hepatotoxicity (acute) [1]: 2
Hepatotoxicity (benign tumour) [2]: 0
Hepatotoxicity (malignant tumour) [3]: 0
Hepatotoxicity (acute) ([4]; Liver): 0%
Hepatotoxicity (granulomatous hepatitis) ([5]; Liver): 0
Hepatotoxicity (steatosis) [6]: 0
Hepatotoxicity (severe hepatitis) ([7]; Liver): 0
Hepatotoxicity (cytolytic) ([8]; Liver): 1
Hepatotoxicity (association with vascular disease) [9]: 0
Hepatotoxicity (moderate) ([10]; Liver): 0%
Hepatotoxicity (animal toxicity known) [11]: yes
Hepatotoxicity (chronic liver disease) [12]: 0
Hepatotoxicity (time to onset) [13]: 3 weeks
Hepatotoxicity (cirrhosis) [14]: 0
Hepatotoxicity (choleostasis) ([15]; Liver): 0
Hepatotoxicity (moderate) [16]: 0

COc1ccc2nc(NC(=O)Nc3ccccc3)sc2c1 [FRENTIZOLE]
Hepatotoxicity (acute) [1]: 2
Hepatotoxicity (benign tumour) [2]: 0
Hepatotoxicity (malignant tumour) [3]: 0
Hepatotoxicity (acute) [4]: 0%
Hepatotoxicity (granulomatous hepatitis) [5]: 0
Hepatotoxicity (steatosis) [6]: 0
Hepatotoxicity (severe hepatitis) [7]: 1
Hepatotoxicity (cytolytic) [8]: 2
Hepatotoxicity (association with vascular disease) [9]: 0
Hepatotoxicity (moderate) [10]: 70%
Hepatotoxicity (animal toxicity known) [11]: yes
Hepatotoxicity (chronic liver disease) [12]: 1
Hepatotoxicity (time to onset) [13]: 1 week - 1 month
Hepatotoxicity (cirrhosis) [14]: 0
Hepatotoxicity (choleostasis) [15]: 0
Hepatotoxicity (moderate) [16]: 4

OCC(Br)(Br)Br [TRIBROMOETHANOL]
Hepatotoxicity (acute) [1]: 9
Hepatotoxicity (benign tumour) [2]: 0
Hepatotoxicity (malignant tumour) [3]: 0
Hepatotoxicity (acute) [4]: 0.1%
Hepatotoxicity (granulomatous hepatitis) [5]: 0
Hepatotoxicity (steatosis) [6]: 9
Hepatotoxicity (severe hepatitis) [7]: 15
Hepatotoxicity (cytolytic) [8]: 8
Hepatotoxicity (association with vascular disease) [9]: 0
Hepatotoxicity (moderate) [10]: 0%
Hepatotoxicity (animal toxicity known) [11]: yes
Hepatotoxicity (chronic liver disease) [12]: 0
Hepatotoxicity (time to onset) [13]: 1 day - 4 days
Hepatotoxicity (cirrhosis) [14]: 0
Hepatotoxicity (choleostasis) [15]: 0
Hepatotoxicity (moderate) [16]: 1

— ChEMBL document CHEMBL3137667, “[Drug-induced liver injury; fourteenth updated edition of the bibliographic database of liver injuries and related drugs]” (Gastroenterol Clin Biol, 2004)
